The data set in a line: solvent given as SMILES.
[1] abbreviates: in O=P(c1ccccc1)(c1ccccc1)c1ccccc1Oc1ccccc1P(=O)(c1ccccc1)c1ccccc1.

For 49 molecules, emission maximum results are on record in the Deep4Chem optical property database.

Regarding `COc1ccc(N(c2ccc(OC)cc2)c2ccc(-c3ccc(C=C(C#N)C#N)s3)cc2)cc1`, the emission maximum (in ClC(Cl)Cl) is recorded as 700 nm.
Take `Cc1ccc(/N=C2\N=C(N)c3cccc4cccc2c34)cc1`: under “in ClCCl”, the emission maximum is recorded as 498 nm.
Same read-out and setting: next, `CCC1=C(C)C2=C(/C=C/Sc3ccccc3)c3c(C)c(CC)c(C)n3[B-](F)(F)[N+]2=C1C`: 580 nm.
Molecule `CCCCCCCCCCCCc1sc(CCCCCC)c2c3cc(CCCCCC)sc3c3sc(CCCCCC)cc3c12` returned an emission maximum (in ClC(Cl)Cl) of 423 nm.
`CCN(CC)c1ccc(/C=N/C2CCCCC2/N=C/c2ccc(N(CC)CC)cc2O)c(O)c1` (stereo unspecified): the emission maximum runs as follows: (in CC#N) 426 nm; (in CN(C)C=O) 432 nm; (in ClCCl) 461 nm.
Turning to `c1ccc(-c2nc3ccccc3nc2-c2ccccc2)cc1`, the emission maximum amounted to 401 nm (in C1CCOC1); 399 nm (in CC#N); 396 nm (in CCCCCC); 403 nm (in CN(C)C=O); 400 nm (in Cc1ccccc1); 398 nm (in ClC(Cl)Cl).
For the molecule `c1ccc(-c2ccc(-c3nc(-n4c5ccccc5c5ccc6c7ccccc7n(-c7ccccc7)c6c54)nc(-n4c5ccccc5c5ccc6c7ccccc7n(-c7ccccc7)c6c54)n3)cc2)cc1`, the emission maximum by setting is: (in Cc1ccccc1) 495 nm; under setting [1], 492 nm.
With `Nc1ccc(/C=C/c2cccnc2)cc1`, the emission maximum is, setting by setting: (in CC#N) 446 nm; (in CCCCCC) 390 nm.
As to `C1=Nc2cccc3cccc(c23)N1`, the emission maximum reads like this: (in CC#N) 476 nm; (in CO) 485 nm; (in CS(C)=O) 482 nm; (in Cc1ccccc1) 472 nm.
For the molecule `Cc1nc(-c2cc(N)ccc2O)n2c1CCCC2`, where the note is “in ClCCl”, the emission maximum is listed as 543 nm.
In turn, `CC(=O)OCOC(=O)CN(CC(=O)OCOC(C)=O)c1ccccc1OCCOc1cc(NC(=O)c2ccc3c(c2)C(=O)OC32c3cc(Cl)c(OC(C)=O)cc3Oc3cc(OC(C)=O)c(Cl)cc32)ccc1N(CC(=O)OCOC(C)=O)CC(=O)OCOC(C)=O` gave an emission maximum (in O) of 534 nm.
On to `F[B-]1(F)OC(c2ccccc2)=CC(c2ccccc2)=[O+]1`, for which the emission maximum was 398 nm (in CC#N) and 389 nm (in ClC(Cl)(Cl)Cl).
For the molecule `CN(C)c1ccc(/C=C/c2nc(N3CCOCC3)c3c([n+]2[O-])CCCC3)cc1`, for the setting “in ClCCl”, the emission maximum amounted to 523 nm.
On to `O=C1C(=c2c(=O)c3c4ccccc4cc4cc5ccccc5c2c43)C(=O)c2ccccc21`, for which the emission maximum (in C1CCOC1) is listed as 583 nm; the emission maximum (in CC#N) was found to be 604 nm; the emission maximum (in CCCCCC) is reported as 556 nm; the emission maximum (in Cc1ccccc1) is given as 578 nm; the emission maximum (in ClCCl) is recorded as 599 nm.
`CCCCN1C(=O)C2=C(c3ccc(Br)cc3)[N-]C(=O)C2=C1c1ccc(Br)cc1` came in with an emission maximum (in ClCCl) of 613 nm.
Regarding `Nc1ccc2c(c1)C(=O)NC2=O`, the emission maximum came to 445 nm (in C1CCOC1); 435 nm (in C1COCCO1); 458 nm (in CC#N); 501 nm (in CC(C)(C)O); 457 nm (in CC(C)=O); 505 nm (in CC(C)O). In addition, the emission maximum stood at 520 nm (in CCO); 425 nm (in CCOCC); 470 nm (in CN(C)C=O); 518 nm (in CO); 540 nm (in O).
`COc1ccc(N2C(=O)c3ccccc3NC2C(C)(C)C)cc1` (stereo unspecified): the emission maximum worked out at 413 nm (in CC#N), 444 nm (in CO), 410 nm (in ClC(Cl)Cl) and 400 nm (in c1ccccc1).
Turning to `Nc1ccccc1/C=C/C(F)(F)F`, the emission maximum (in C1CCOC1) is reported as 427 nm.
Consider `O=c1oc2ccccc2cc1-c1ccc(-c2ccc(-c3cc4ccccc4oc3=O)cc2)cc1`, for which, under “in ClCCl”, the emission maximum is reported as 430 nm.
As to `O=C1NC(=O)c2ccc3c4ccc5c6c(ccc(c7ccc1c2c73)c64)C(=O)N(c1ccc(Cl)cc1)C5=O`, where the note is “in CN(C)C=O”, the emission maximum amounted to 536 nm.
Take `COc1ccc2c(CC(=O)NN)coc2c1`: the emission maximum is on record as 381 nm (in C1CCOC1); 376 nm (in CC#N); 396 nm (in CC(C)=O); 384 nm (in CCCCO); 396 nm (in CCCO); 374 nm (in CCO). Besides, the emission maximum by setting is: (in CCOC(C)=O) 368 nm; (in CN(C)C=O) 378 nm; (in CO) 378 nm; (in ClCCl) 402 nm.
Consider `BrC1=CN2C[n+]3cc(Br)c4ccccc4c3N=C2c2ccccc21`, for which, under “in CO”, the emission maximum is 502 nm.
`Cc1cc(C)c(C2=C3C=CC(c4ccc5ccccc5c4)=[N+]3[B-](F)(F)n3c2ccc3-c2ccc3ccccc3c2)c(C)c1` returned an emission maximum (in ClC(Cl)Cl) of 618 nm.
In the case of `FC(F)(F)c1cc2n(n1)[B-](c1ccccc1)(c1ccccc1)[n+]1ccc3ccccc3c1-2`, the emission maximum is 410 nm (in C1CCCCC1), 410 nm (in Cc1ccccc1) and 404 nm (in ClCCl).
As for `CC(C)CN1C(=O)/C(=C/c2ccc([N+](=O)[O-])cc2)C=C1c1ccccc1`, under “in C1COCCO1”, the emission maximum amounted to 601 nm.
In the case of `COc1cc(OC)cc(C2=[O+][B-](F)(F)OC(c3ccc4ccccc4c3)=C2)c1`, the emission maximum (in CC#N) came to 521.21 nm; the emission maximum (in CC(C)=O) was determined as 521.21 nm; the emission maximum (in CCCCCC) turned out to be 418.89 nm; the emission maximum (in Cc1ccccc1) is on record as 492.31 nm; the emission maximum (in ClCCl) amounted to 560 nm.
For the molecule `COc1ccc2c(c1)C(C)(C)c1c-2c2ccc(OC)cc2c2cc(OC)ccc12`, the emission maximum (in C1CCCCC1) is recorded as 398 nm.
For the setting “in C1CCOC1”, `CCN(CC)c1ccc(-c2nc3c(nc2-c2ccc([B-](F)(c4c(C)cc(C)cc4C)c4c(C)cc(C)cc4C)cc2)c2ccccc2n3C)cc1` yielded an emission maximum of 497.22 nm.
Molecule `O=S1(=O)Nc2ccc3c(c2-c2ccccc21)-c1ccccc1S(=O)(=O)N3` registered an emission maximum (in ClCCl) of 425 nm.
On to `CC1=N/C(=C\c2cc(N(C)C)ccc2C#N)C(=O)N1C`, for which the emission maximum turned out to be 560 nm (in C1CCOC1), 606 nm (in CC#N) and 492 nm (in CCCCCC).
In the case of `CCCCn1c(-c2ccc(-c3nnc(-c4ccc(-c5nc6ccccc6n5CCCC)cc4)o3)cc2)nc2ccccc21`, the emission maximum (in ClCCl) turned out to be 407 nm.
`Cc1cc(=O)oc2c3c4c(cc12)CCCN4CCC3`: the emission maximum is 407 nm (in C1CCCCC1), 450 nm (in CC#N), 473 nm (in CCO) and 489 nm (in O).
As to `c1ccc2c(c1)c1ccccc1n2-c1ccc(-c2ccc(-c3ccc(-n4c5ccccc5c5ccccc54)nc3-n3c4ccccc4c4ccccc43)nn2)c(-n2c3ccccc3c3ccccc32)n1`, the emission maximum runs as follows: (in CC#N) 474.18 nm; (in Cc1ccccc1) 400 nm; (in ClCCl) 419.62 nm.
Molecule `CCCCCCN1C(=O)c2cccc3cc(/N=C\c4ccc5c(c4)c4ccccc4n5CC)cc(c23)C1=O` returned an emission maximum (in ClC(Cl)Cl) of 501 nm.
`N#Cc1ccc2cc[nH]c2c1` gave an emission maximum (in C1CCOC1) of 345 nm; an emission maximum (in C1COCCO1) of 342 nm; an emission maximum (in CC#N) of 354 nm; an emission maximum (in CC(C)O) of 356 nm; an emission maximum (in CCO) of 358 nm; an emission maximum (in CO) of 367 nm. Moreover, the emission maximum came out at 363 nm (in CS(C)=O), 375 nm (in O) and 364 nm (in OCC(F)(F)F).
Regarding `c1ccc(-c2nc(-c3ccccc3)nc(-c3cc(-n4c5ccccc5c5ncccc54)c(-n4c5ccccc5c5ccccc54)c(-n4c5ccccc5c5ncccc54)c3)n2)cc1`, the emission maximum stood at 525.35 nm (in CC#N); 446.05 nm (in CCCCCC); 464.88 nm (in Cc1ccccc1); 502.79 nm (in ClCCl); 455.49 nm under setting [1].
With `CCOC(=O)c1ccc(C2CC(c3cccc4ccccc34)=NN2c2ccc(C)cc2)cc1` (stereo unspecified), the emission maximum (in ClCCl) came to 493 nm.
On the same count and under the same terms, with `CCN(CC)c1ccc2cc(-c3ccc(-c4ccc(-c5cc6ccccc6oc5=O)cc4)cc3)c(=O)oc2c1` the figure was 478 nm; with `COc1cc2c(cc1OC)C1=C[C@H](c3ccccc3)C3(C(C(=O)O[C@@H]4C[C@H]5CC[C@@H]4C5)=C(C(=O)O[C@H]4C[C@@H]5CC[C@H]4C5)N1CC2)c1ccccc1-c1ccccc13`, 422 nm.
In turn, `N#Cc1ccc2nc3c(=O)[nH]c(=O)[nH]c3nc2c1` yielded an emission maximum (in ClCCCl) of 430 nm.
Under “in ClCCl”, `CCN(CC)c1ccc2c(-c3ccccc3C(=O)O)c3c([o+]c2c1)/C(=C/c1ccc(N2CCCC2)s1)CCC3` came in with an emission maximum of 770 nm.
On to `CCC1=C(C)C(=O)n2c1cc1c(C)c(CCC(=O)OC)c(C)n1c2=O`, for which the emission maximum is, setting by setting: (in CO) 530 nm; (in CS(C)=O) 505 nm; (in ClC(Cl)Cl) 495 nm; (in c1ccccc1) 470 nm.
Take `CC1=CC(C)=[N+]2C1=C(c1ccc(I)cc1)c1c(C)cc(C)n1[B-]21OCCO1`: the emission maximum (in ClC(Cl)Cl) stood at 520.7 nm.
As for `[NH3+]c1ccc2c(c1)Cc1ccccc1-2`, the emission maximum (in O) was 314 nm.
Same read-out and setting: with `CCNc1ccc2c(c1)C(C)(C)C(=O)C=C2` the figure was 541 nm.
With `CCCCCCOc1cc2cc(=O)oc3ccc4cccc1c4c23`, the emission maximum (in CC1CCCO1) is given as 468 nm.
Consider `CC(C)(C)c1ccc(-c2c3c(c(-c4ccc(C(C)(C)C)cc4)c4cc5ccccc5cc24)Cc2c(c(-c4ccc(C(C)(C)C)cc4)c4cc5ccccc5cc4c2-c2ccc(C(C)(C)C)cc2)C3)cc1`, for which the emission maximum (in ClCCl) stood at 409 nm.
`CC[n+]1c(-c2ccccc2)c2cc(N)ccc2c2ccc(-n3cccc3)cc21` had an emission maximum (in O) of 592 nm.
For the molecule `F[B-]1(F)OC(c2ccccc2)=Cc2c3ccccc3c3ccccc3[n+]21`, for the setting “in ClC(Cl)Cl”, the emission maximum is on record as 447 nm.
